Measurements published in patent US20190008848A1, “IDENTIFICATION OF ADDITIONAL ANTI-PERSISTER ACTIVITY AGAINST BORRELIA BURGDORFERI FROM AN FDA DRUG LIBRARY” (THE JOHNS HOPKINS UNIVERSITY, priority 2015, published 2019).
Counter-ions that a name gives are not always drawn. Like-named read-outs stand apart in the source and are kept apart here.

Test system: stationary phase B. burgdorferi
Test: SYBR Green I/PI viability assay (drug library screen, plate reader)
Details: for viability at 50 µM: Borreliella burgdorferi, 168 h; for activity against stationary phase B. burgdorferi (in words): screen at 50 μM
Description: Borrelia burgdorferi strain B31 (ATCC35210) was received from the […] (Manassas, Va., USA) and was grown in BSK-H medium (HiMedia Laboratories, Mumbai, India) and 6% rabbit serum (Sigma Aldrich, St. Louis, Mo., USA). The culture was filtered and sterilized using a […] and incubated in capped sterile 50 mL conical tubes (BD Biosciences, CA, USA) at 33° C. for 7 days without antibiotics until the culture reached stationary phase.
The cultures were examined using a Nikon Eclipse E800 microscope with differential interference contrast and epifluorescent illumination. The pictures were captured using a SPOT slider color camera. A SYBR Green I/PI assay was used to assess the viability of the bacterial sample using the ratio of live to dead B. burgdorferi (measured with green and red fluorescence, respectively) as measured by a plate reader.
Briefly, prediluted drug stock (10 μL) was added to 7 day old stationary phase B. burgdorferi culture (90 μL) to achieve a 50 μM final drug concentration per well. The plates were then incubated at 33° C. for 7 days at which point the SYBR/PI rapid viability assay was performed in a fluorescence plate reader to obtain the green-red fluorescence ratio.

[1] = read-out: Residual viable cells (SYBR/PI), Table 3, drugs 50 μM, 7-day old stationary phase cells treated for 7 days
[2] = read-out: Residual viable cells (SYBR/PI)
[3] = read-out: Residual viable cells (SYBR Green/PI), Table 1, drugs 50 μM, 7 day old stationary phase cells treated for 7 days
[4] = Table 3, drugs 50 μM, 7-day old stationary phase cells treated for 7 days

`Cc1cc(C2CCCCC2)n(O)c(=O)c1` [Ciclopirox olamine] gave a viability at 50 µM [1] of 66%.
In the case of `CC1(C)S[C@@H]2[C@H](NC(=O)[C@H](N)c3ccccc3)C(=O)N2[C@H]1C(=O)O` [Ampicillin], the viability at 50 µM [1] is reported as 64%.
`Nc1ccc(S(=O)(=O)Nc2ccc(Cl)nn2)cc1` [Sulfachlorpyridazine] showed a viability at 50 µM [2] of 58%.
In the case of `C=N[C@@H](C(=O)N[C@@H]1C(=O)N2[C@@H]1SC(C)(C)[C@@H]2C(=O)O)c1ccccc1` [Metampicillin], the viability at 50 µM [1] is reported as 57%.
In the case of `CCCOc1ccc2nc(NC(=O)OC)[nH]c2c1` [Oxibendazole], the viability at 50 µM [3] is reported as 51% and the viability at 50 µM [1] is reported as 51%.
`C[C@H]1[C@H](OC(=O)CCC(=O)O)O[C@@H]2O[C@@]3(C)CC[C@H]4[C@H](C)CC[C@@H]1[C@@]24OO3` [Artesunate] was tested, and the viability at 50 µM [1] was 58%.
`CCCCCl` [Butyl chloride (1-Chlorobutane), 1-Chlorobutane] was tested, and the viability at 50 µM [2] was 41% and the “activity against stationary phase B. burgdorferi (in words)” value (“activity” for short) (7 days) was “very high activities”.
`CS(=O)(=O)c1ccc([C@@H](O)[C@@H](CO)NC(=O)C(Cl)Cl)cc1` [Thiamphenicol] showed a viability at 50 µM [1] of 57%.
In the case of `O=C(Nc1ccccc1)c1ccccc1O` [Salicylanilide], the viability at 50 µM [2] is reported as 63%.
`COC(=O)Nc1nc2ccc([S+]([O-])c3ccccc3)cc2[nH]1` (stereo not shown) [Oxfendazole] gave a viability at 50 µM [3] of 54% and a viability at 50 µM [1] of 54%.
Molecule `CC(C)[C@H](N)C(=O)OCCOCn1cnc2c(=O)[nH]c(N)nc21` [Valacyclovir] has a viability at 50 µM [1] of 58%.
For `COc1ccc(C[C@H]2NC[C@H](O)[C@H]2OC(C)=O)cc1` [Anisomycin], the “Residual viable cells (SYBR/PI)” value [4] was 68%.
Molecule `Cc1cc(C(C#N)c2ccc(Cl)cc2)c(Cl)cc1NC(=O)c1cc(I)cc(I)c1O` (stereo not shown) [Closantel] has a viability at 50 µM [1] of 56%.
`S=C=Nc1ccc(N=C=S)cc1` [Bitoscanate] gave a viability at 50 µM (read-out: Residual viable cells (SYBR Green/PI)) of 46% and a viability at 50 µM [2] of 46%.
`CCC[S+]([O-])c1ccc2[nH]c(NC(=O)OC)nc2c1` (stereo not shown) [Ricobendazole (Albendazole oxide), Albendazole oxide] showed a viability at 50 µM [2] of 57%.
`C[C@@H](c1ncncc1F)[C@](O)(Cn1cncn1)c1ccc(F)cc1F` [Voriconazole] was tested, and the viability at 50 µM [1] was 65%.
With `CC(=O)OCC1=C(C(=O)O)N2C(=O)[C@@H](NC(=O)CCC[C@@H](N)C(=O)O)[C@H]2SC1` [Cephalosporin C] the “Residual viable cells (SYBR/PI)” value [4] was 58%.
For `Cc1c(O)cccc1C(=O)N[C@@H](CSc1ccccc1)[C@H](O)CN1C[C@H]2CCCC[C@H]2C[C@H]1C(=O)NC(C)(C)C` [Nelfinavir mesylate], the viability at 50 µM [1] was 66%.
For `O=C(Nc1ccc(Cl)cc1)Nc1ccc(Cl)c(Cl)c1` [3,4,4′-Trichlorocarbanilide], the “Residual viable cells (SYBR/PI)” value [4] was 45%.
`CCCCCCCCCCCCCCCCCCCCCCO` [Docosanol] showed a viability at 50 µM [1] of 55%.
With `CCCc1cc(C(N)=S)ccn1` [Protionamide] the viability at 50 µM [1] was 63%.
For `COP(=O)(OC)C(O)C(Cl)(Cl)Cl` (stereo not shown) [Metrifonate], the viability at 50 µM [2] was 51%.
`C[C@H]1COc2c(C3(N)CC3)c(F)cc3c(=O)c(C(=O)O)cn1c23` [Pazufloxacin] was tested, and the viability at 50 µM [1] was 69%.
In the case of `CC(=O)Nc1ccc(/C=N/NC(N)=S)cc1` [Thiacetazone (Amithiozone), Amithiozone], the viability at 50 µM [1] is reported as 73%.
For `NC12CC3CC(CC(C3)C1)C2` [Amantadine hydrochloride], the “Residual viable cells (SYBR/PI)” value (Borrelia burgdorferi, 7 days, 50 μM) was 69% and the viability at 50 µM [1] was 65%.
In the case of `Nc1cc(C(Cl)=C(Cl)Cl)c(S(N)(=O)=O)cc1S(N)(=O)=O` [Clorsulon], the viability at 50 µM [1] is reported as 71%.
For `O=C(N/N=C/c1ccc([N+](=O)[O-])o1)c1cc([N+](=O)[O-])cc([N+](=O)[O-])c1O` [Nifursol], the viability at 50 µM [1] was 51%.
Molecule `O=[N+]([O-])c1ccc(O)c2ncccc12` [Nitroxoline (8-hydroxy 5-nitroquinoline), 8-hydroxy 5-nitroquinoline] has a viability at 50 µM [1] of 66%.
Work on `O=c1n(Cl)c(=O)n(Cl)c(=O)n1Cl` [Symclosene (Trichloroisocyanuric acid), Trichloroisocyanuric acid] yielded a viability at 50 µM [2] of 60%.
With `CS(=O)(=O)c1ccc([C@@H](O)[C@@H](CF)NC(=O)C(Cl)Cl)cc1` [Florfenicol] the viability at 50 µM [1] was 53%.
Work on `COC1=CC(=O)C[C@@H](C)[C@]12Oc1c(Cl)c(OC)cc(OC)c1C2=O` [Griseofulvin] yielded a viability at 50 µM [3] of 63% and a viability at 50 µM [1] of 63%.
Work on `NC(=O)c1ncn([C@@H]2O[C@H](CO)[C@@H](O)[C@H]2O)n1` [Ribavirin] yielded a viability at 50 µM [3] of 63% and a viability at 50 µM [1] of 63%.
`O=C1Nc2ccc(Cl)cc2[C@@](C#CC2CC2)(C(F)(F)F)O1` [Efavirenz] gave a viability at 50 µM [1] of 60%.
`C[C@@H]1[C@H](O)[C@@H](C)/C=C/C=C/CC/C=C/C=C/C=C/C=C/C(O[C@H]2O[C@H](C)[C@@H](O)[C@H](N)[C@@H]2O)CC2O[C@](O)(CC(O)C(O)CCC(O)CC(O)CC(O)CC(=O)O[C@H]1C)CC(O)C2C(=O)O` (stereo partly shown) [Nystatin] was tested, and the “Residual viable cells (SYBR Green/PI)” value (Table 1, drugs 50 μM, 7 day old stationary phase cells treated for 7 days) was 64%, the “Residual viable cells (SYBR/PI)” value [4] was 64% and the “activity” value (7 days) was “reasonable activity”.
For `c1ccc(C2CN3CCSC3=N2)cc1` (stereo not shown) [Tetramisole], the viability at 50 µM [3] was 48% and the viability at 50 µM [1] was 48%.
`NS(=O)(=O)c1ccc(C(=O)O)cc1` [Carzenide (4-Carboxybenzenesulfonamide), 4-Carboxybenzenesulfonamide] gave a viability at 50 µM [1] of 59%.
`Clc1ccccc1C(c1ccccc1)(c1ccccc1)n1ccnc1` [Clotrimazole] showed a viability at 50 µM [1] of 68%.
In the case of `Nc1ccn([C@@H]2CS[C@H](CO)O2)c(=O)n1` [Lamivudine], the viability at 50 µM [3] is reported as 58% and the viability at 50 µM [1] is reported as 58%.
`NC[C@@H]1CC[C@@H](N)[C@@H](O[C@H]2[C@H](O)[C@@H](O[C@H]3O[C@H](CO)[C@@H](O)[C@H](N)[C@H]3O)[C@H](N)C[C@@H]2N)O1` [Dibekacin] was tested, and the viability at 50 µM [1] was 70%.
For `CCN(CC)CCOc1ccc2c(c1)C(=O)c1cc(OCCN(CC)CC)ccc1-2` [Tilorone, Tilorone dihydrochloride], the viability at 50 µM [3] was 44%, the viability at 50 µM [1] was 44% and the “activity” value (7 days) was “good activity”.
For `Nc1ccc(C(=O)O)c(O)c1` [4-Aminosalicylic acid], the viability at 50 µM [2] was 66%.
`COC(=O)N/N=C/c1c[n+]([O-])c2ccccc2[n+]1[O-]` [Carbadox] was tested, and the viability at 50 µM [1] was 69%.
With `Oc1ccc(Cl)c2cccnc12` [Cloxyquin (5-chloro-8-hydroxy-quinoline), 5-chloro-8-hydroxy-quinoline] the viability at 50 µM [1] was 60%.
In the case of `O=c1[nH]c(=O)n([C@H]2C[C@H](O)[C@@H](CO)O2)cc1F` [Floxuridine, 5-fluorodeoxyuridine], the viability at 50 µM [3] is reported as 61% and the viability at 50 µM [1] is reported as 61%.
In the case of `COC(=O)c1ccc(O)c2nc3c(C=O)c(O)cc(O)c3nc12` [Lomofungin], the viability at 50 µM [1] is reported as 58%.
`NC1CCN(c2c(F)cc3c(=O)c(C(=O)O)cn(C4CC4)c3c2Cl)C1` (stereo not shown) [Clinafloxacin] gave a viability at 50 µM [1] of 60%.
Molecule `O=C(Cn1ccnc1[N+](=O)[O-])NCc1ccccc1` [Benznidazole] has a viability at 50 µM [1] of 53%.
Molecule `Nc1nc(O)c2ncn(COC(CO)CO)c2n1` [Ganciclovir] has a viability at 50 µM [3] of 53% and a viability at 50 µM [1] of 53%.
With `N#CC(c1ccc(Cl)cc1)c1c(Cl)cc(-n2ncc(=O)[nH]c2=O)cc1Cl` (stereo not shown) [Diclazuril] the viability at 50 µM [1] was 63%.
`CC(C)(C)CC(C)(C)c1ccc(O)c(Cc2ccc(Cl)cc2Cl)c1` [Clofoctol] gave a viability at 50 µM [1] of 73%.
With `COC(=O)Nc1nc2cc(C(=O)c3ccc(F)cc3)ccc2[nH]1` [Flubendazole] the viability at 50 µM [3] was 54% and the viability at 50 µM [1] was 54%.
Work on `O=C(Nc1ccc(C(=O)O)c(O)c1)c1ccccc1` [Benzoylpas, 4-Benzamido salicylic acid, calcium salt] yielded a viability at 50 µM [3] of 55% and a viability at 50 µM [1] of 55%.
Work on `Cc1cn([C@H]2C=C[C@@H](CO)O2)c(=O)[nH]c1=O` [2′,3′-Didehydro-3′-Deoxythymidine] yielded a viability at 50 µM [1] of 65%.
For `O=c1[nH]cnc2c1ncn2[C@H]1CC[C@@H](CO)O1` [Didanosine, 2′-3′-dideoxyinosine], the viability at 50 µM [3] was 61% and the viability at 50 µM [1] was 61%.
`CC(N)C12CC3CC(CC(C3)C1)C2` (stereo not shown) [Rimantadine] was tested, and the viability at 50 µM [1] was 68%.
For `[I-].[K+]` [Potassium iodide], the “Residual viable cells (SYBR/PI)” value [4] was 65%.
`Clc1ccc(CCC(Cn2ccnc2)Sc2c(Cl)cccc2Cl)cc1` (stereo not shown) [Butoconazole nitrate] showed a viability at 50 µM [1] of 74%.
`CC(=O)OCC(CCn1cnc2cnc(N)nc21)COC(C)=O` [Famciclovir] showed a viability at 50 µM [1] of 68%.
With `N#CCC(=O)NN` [Cyacetacide] the viability at 50 µM [3] was 61% and the viability at 50 µM [1] was 61%.
Molecule `CCC(=O)O[C@@H]1CC(=O)O[C@H](C)C/C=C/C=C/[C@H](O)[C@H](C)C[C@H](CC=O)[C@H](O[C@@H]2O[C@H](C)[C@@H](O[C@H]3C[C@@](C)(O)[C@@H](OC(=O)CC)[C@H](C)O3)[C@H](N(C)C)[C@H]2O)[C@H]1OC` [Midecamycin] has a viability at 50 µM [1] of 54%.
`NCC[C@H](O)C(=O)N[C@@H]1C[C@H](N)[C@@H](O[C@H]2O[C@H](CN)[C@@H](O)[C@H](O)[C@H]2O)[C@H](O)[C@H]1O[C@H]1O[C@H](CO)[C@@H](O)[C@H](N)[C@H]1O` [Amikacin] gave a viability at 50 µM [1] of 57%.
With `CCOc1ccc2nc3cc(N)ccc3c(N)c2c1` [Ethacridine lactate] the viability at 50 µM [3] was 48% and the viability at 50 µM [1] was 48%.
